Experimental data reported in patent publication US11040052B2, “Methods and pharmaceutical compositions for modulating autophagy in a subject in need thereof” (INSERM (INSTITUT NATIONAL DE LA SANTE ET DE LA RECHERCHE …, priority 2013, dated 2021).
“Also recorded” adds a separate entry of the source.

Key:
[1] = test system: TAC-induced cardiac autophagy and remodeling; test: In vivo model of pressure overload (thoracic aortic constriction, TAC); design: species or system mice; details: daily intra-peritoneal 300 mg/kg
Method: Immuno-histochemical staining of heart tissue sections was performed using the Novolink Kit (Menarini Diagnostics, RE7140-K), as previously described (Ladoire et al., 2012). Briefly, […] formalin-fixed, paraffin-embedded tissue sections were deparaffinized with 3 successive passages through xylene, and rehydrated through decreasing concentrations (100%, 95%, 80%, 70% and 50%) of ethanol. Antigen retrieval was performed by heating slides for 30 min in pH 6.0 citrate buffer at 95° C. Slides were then allowed to cool at room temperature for 45 min, mounted on Shandon Sequenza coverplates (Thermo Fisher Scientific, 72-199-50) in distilled water, and then washed twice for 5 min with 0.1% Tween 20 (v/v in PBS). Thereafter, sections were incubated for 5 min with the Peroxidase Block reagent, and subsequently washed twice for 5 min with 0.1% Tween 20 (v/v in PBS). […] Two-dimensional echocardiography was performed prior to surgery and 1 week post-surgery in non-sedated mice to quantify functional parameters using a Vevo 2100 high-resolution imaging system (Visual Sonics). […] Quantitative analysis was obtained through measurement of an average of 900 cells in each section from two (sham) or three (TAC) animals.

[2] = test system: CD4+CD25+Foxp3+ Tregs in tumor bed; test: Detection of tumor-infiltrated Tregs (flow cytometry); format: in vivo, mice; details: compared with MTX group
Method: Tumors were digested using Miltenyi Biotec tumor digestion kit according to manufacturer's protocol. Single cells were resuspended in RPMI 1640 and sequentially passed through 100 μm and 70 μM nylon cell strainers (BD Biosciences). Leukocytes were purified using Miltenyi Biotec magnetic beads conjugated to monoclonal anti-mouse CD45 (clone 30F11.1) according to the supplier's recommendations. Prior to staining of TIL populations for flow cytometry analysis, samples were incubated with LIVE/DEAD® Fixable Yellow Dead Cell dyes (Invitrogen) to discriminate viable cells from damaged cells. TILs were incubated with antibodies against CD16/CD32 before staining with fluorescent-labeled antibodies targeting T-cell surface markers. Then, cells were permeabilized and fixed with eBioscience Foxp3/Transcription Factor Staining Buffer Set and stained for intracellular Foxp3. Data were acquired using a MACSQuant flow cytometer (Miltenyi Biotec) and analyzed with FlowJo v. X PC software (Treestar, Oreg., USA). Tregs were defined as CD3+ CD4+ CD8− CD25+ Foxp3+ T-cell population.

KRas-induced lung cancer = KRas-induced lung cancer (AdCre inhalation); format: in vivo, mice
Method: Atg5fl/fl mice were kindly given by Dr Noboru Mizushima. LSL-K-rasG12D;Atg5fl/fl mice were obtained as described in^7. In all experiments, only littermate mice were used as controls. All mice were maintained according to the ethical animal licence protocol complying with the Austrian and European legislation. All experiments were approved by Bundesministerium for Wissenschaft and Forschung, Austria (BMWF-66.015/0013-II/3b/2012).
Inhalation of 6-8-week-old mice with AdCre viruses was performed as previously reported (REF). In brief, experimental animals were anaesthetized with 10% Ketasol/Xylasol and placed on a heated pad. An AdCre-CaCl2 precipitate was produced by mixing […], 2.5 ml AdCre (1010 p.f.u. ml_1; University of Iowa, Gene Transfer Vector Core Iowa, USA) and 0.6 ml CaCl2 (1 M) for each mouse and incubated for 20 min at room temperature. One week after AdCre inhalation, mice were administered with 900 mg/kg HC per body weight in drinking water for 5 weeks and tumors lesions were evaluated by immunohistochemistry.
For KRas-induced lung cancers hisology, […] sections from at least three different planes were cut and stained with haematoxylin and eosin. Sections were scanned using a Mirax slide scanner and lung/tumour areas were automatically scored by an algorithm programmed and executed using the Definiens software suite and visually analyzed in a double blinded fashion. Immunhistochemical staining was performed by automatic staining machine (Leica Bond3) or manually processed. Sections were dehydrated and antigenic epitopes were retrieved using a 10-mM citrate buffer and microwaving for 10 min. Specimen were then incubated with rabbit polyclonal anti-Foxp3 (eBioscience, 13-5773, :100), anti-CD3E (Santa Cruz, 101442, 1:100). Primary Ab staining was detected by peroxidase conjugated anti-rabbit IgG (DAKO, P0448, 1:500). Positive cells were counted on 20 randomly chosen tumour areas at _400 magnifications in a double blinded fashion. Quantitative analysis was performed using HistoQuest software (TissueGnostics GmbH, Vienna, Austria; http://www.tissuegnostics.com).

MCA205 cells = test: Labeling of vesicular ATP in vitro (quinacrine/PI); format: cell-based, murine; details: compared to MTX alone
Method: MCA205 cells were loaded with […] quinacrine in Krebs-Ringer solution (125 mM NaCl, 5 mM KCl, 1 mM MgSO4, 0.7 mM KH2PO4, 2 mM CaCl2), 6 mM glucose and 25 mM HEPES buffer, pH 7.4) for 30 min at 37 1C. Thereafter, cells were co-stained for 10 min with […] propidium iodide (PI) and […] Hoechst 33342 (both from Molecular Probes-Life Technologies), rinsed with Krebs-Ringer solution and analyzed by automated fluorescence microscopy.

| SMILES | TAC-induced cardiac autophagy [1] | TAC-induced pathological remodeling / heart failure features [1] | Foxp3+ Tregs in tumor bed, combined with MTX [2] | autophagy (LC3 dots) in KRas induced lung adenocarcinomas (KRas-induced lung cancer; Atg5fl/+ tumors) | Foxp3+ regulatory T cells in tumor bed (KRas-induced lung cancer; KRas;Atg5fl/+ mice) | number and size of tumor lesions (KRas-induced lung cancer; KRas;Atg5fl/+ mice, 5 weeks in drinking water) | ratio between CD8+ and Foxp3+ lymphocytes (KRas-induced lung cancer; KRas;Atg5fl/+ tumors) | lung cancers in mice without adaptive immunity (KRas-induced lung cancer; Rag2−/− mice, data not shown) | ATP release in vitro, combined with MTX (MCA205 cells) |
| --- | --- | --- | --- | --- | --- | --- | --- | --- | --- |
| COC(=O)CCC(=O)C(=O)OC [DMKG, dimethyl-α-ketoglutarate] | decreased cardiac autophagy induced by thoracic aortic constriction (TAC); also recorded: inhibited the maladaptive accumulation of autophagosomes | suppressed TAC-induced pathological remodeling; also recorded: suppressed multiple features of TAC-induced heart failure | – | – | – | – | – | – | – |
| O=C(O)CC(O)(C(=O)O)C(O)C(=O)O (stereo not drawn) [HC, hydroxycitrate] | – | – | reduces Treg infiltration in tumor bed; also recorded: particularly efficient in reducing the frequency of Foxp3^+ Tregs in tumors | induced autophagy in KRas induced lung adenocarcinomas | reduces CD3+ FOXP3 Regulatory T cells in tumor bed; also recorded: reduced the density of tumor infiltration by lymphocytes expressing the Treg marker Foxp3 | reduces tumor size and lesions; also recorded: reduced the number and size of Ad-Cre-induced tumor lesions | improvement in the ratio between CD8^+ and Foxp3^+ lymphocytes | had no positive effect on lung cancers evolving in Rag2^−− mice | marked increase in ATP release; also recorded: particularly efficient in inducing the autophagy-dependent release of ATP |
